Measurements as given in the CheMixHub viscosity set.

Experiment: xn = mol fraction of the nth substance listed

CCN(CC)S(C)(=O)=O + CCO
303.15 K, 101.33 kPa
Settings	viscosity [mPa·s]
x1 = 0.0656	100000
x1 = 0.1402	106700
x1 = 0.2228	117500
x1 = 0.2849	127400
x1 = 0.3659	142400
x1 = 0.4606	163500
x1 = 0.5135	176500
x1 = 0.5968	200200
x1 = 0.6622	221700
x1 = 0.743	253300
x1 = 0.8454	302600
x1 = 0.9395	359700

CS(C)=O + CCO
Settings	viscosity [mPa·s]
293.15 K, 100 kPa, x2 = 0.08	2.021
293.15 K, 100 kPa, x2 = 0.16	1.873
293.15 K, 100 kPa, x2 = 0.23	1.756
293.15 K, 100 kPa, x2 = 0.3	1.666
293.15 K, 100 kPa, x2 = 0.36	1.572
298.15 K, 100 kPa, x2 = 0.08	1.828
298.15 K, 100 kPa, x2 = 0.16	1.701
298.15 K, 100 kPa, x2 = 0.23	1.598
298.15 K, 100 kPa, x2 = 0.3	1.517
298.15 K, 100 kPa, x2 = 0.36	1.436
298.15 K, 101 kPa, x1 = 0.061	1.182
298.15 K, 101 kPa, x1 = 0.2	1.291
298.15 K, 101 kPa, x1 = 0.37	1.466
298.15 K, 101.3 kPa, x1 = 0.0616	1.015
298.15 K, 101.3 kPa, x1 = 0.1286	1.021
298.15 K, 101.3 kPa, x1 = 0.2019	1.022
298.15 K, 101.3 kPa, x1 = 0.2801	1.056
298.15 K, 101.3 kPa, x1 = 0.3708	1.114
298.15 K, 101.3 kPa, x1 = 0.4693	1.187
298.15 K, 101.3 kPa, x1 = 0.5814	1.298
298.15 K, 101.3 kPa, x1 = 0.7023	1.454
298.15 K, 101.3 kPa, x1 = 0.7609	1.538
298.15 K, 101.3 kPa, x1 = 0.8414	1.657
298.15 K, 101.3 kPa, x1 = 0.933	1.851
298.15 K, 101.31 kPa, x1 = 0.1026	1.034
298.15 K, 101.31 kPa, x1 = 0.1971	1.029
298.15 K, 101.31 kPa, x1 = 0.2892	1.061
298.15 K, 101.31 kPa, x1 = 0.4043	1.137
298.15 K, 101.31 kPa, x1 = 0.5029	1.234
298.15 K, 101.31 kPa, x1 = 0.62	1.352
298.15 K, 101.31 kPa, x1 = 0.7117	1.491
298.15 K, 101.31 kPa, x1 = 0.8036	1.634
298.15 K, 101.31 kPa, x1 = 0.9017	1.807
299 K, 101 kPa, x1 = 0.0519	1.711
299 K, 101 kPa, x1 = 0.1593	1.696
299 K, 101 kPa, x1 = 0.3301	1.895
299 K, 101 kPa, x1 = 0.451	2.099
299 K, 101 kPa, x1 = 0.5779	2.34
299 K, 101 kPa, x1 = 0.7807	2.572
303.15 K, 100 kPa, x2 = 0.16	1.552
303.15 K, 100 kPa, x2 = 0.3	1.39
303.15 K, 100 kPa, x2 = 0.36	1.317
303.15 K, 101 kPa, x1 = 0.2	1.191
303.15 K, 101 kPa, x1 = 0.2004	1.205
303.15 K, 101 kPa, x1 = 0.37	1.366
303.15 K, 101.3 kPa, x1 = 0.0616	0.966
303.15 K, 101.3 kPa, x1 = 0.1286	0.932
303.15 K, 101.3 kPa, x1 = 0.2019	0.884
303.15 K, 101.3 kPa, x1 = 0.2801	0.904
303.15 K, 101.3 kPa, x1 = 0.3708	0.938
303.15 K, 101.3 kPa, x1 = 0.4693	1.064
303.15 K, 101.3 kPa, x1 = 0.5814	1.201
303.15 K, 101.3 kPa, x1 = 0.7023	1.354
303.15 K, 101.3 kPa, x1 = 0.7609	1.481
303.15 K, 101.3 kPa, x1 = 0.933	1.685
308.15 K, 100 kPa, x2 = 0.16	1.426
308.15 K, 100 kPa, x2 = 0.3	1.28
308.15 K, 100 kPa, x2 = 0.36	1.213
308.15 K, 101 kPa, x1 = 0.061	1.002
308.15 K, 101 kPa, x1 = 0.2	1.091
308.15 K, 101 kPa, x1 = 0.37	1.266
308.15 K, 101.31 kPa, x1 = 0.1026	0.882
308.15 K, 101.31 kPa, x1 = 0.1971	0.893
308.15 K, 101.31 kPa, x1 = 0.2892	0.916
308.15 K, 101.31 kPa, x1 = 0.4043	0.981
308.15 K, 101.31 kPa, x1 = 0.5029	1.056
308.15 K, 101.31 kPa, x1 = 0.62	1.159
308.15 K, 101.31 kPa, x1 = 0.7117	1.26
308.15 K, 101.31 kPa, x1 = 0.8036	1.375
308.15 K, 101.31 kPa, x1 = 0.9017	1.511
313.15 K, 100 kPa, x2 = 0.08	1.402
313.15 K, 100 kPa, x2 = 0.16	1.312
313.15 K, 100 kPa, x2 = 0.23	1.237
313.15 K, 100 kPa, x2 = 0.3	1.181
313.15 K, 100 kPa, x2 = 0.36	1.121
318.15 K, 101.31 kPa, x1 = 0.1026	0.745
318.15 K, 101.31 kPa, x1 = 0.1971	0.753
318.15 K, 101.31 kPa, x1 = 0.2892	0.782
318.15 K, 101.31 kPa, x1 = 0.4043	0.835
318.15 K, 101.31 kPa, x1 = 0.5029	0.908
318.15 K, 101.31 kPa, x1 = 0.62	0.994
318.15 K, 101.31 kPa, x1 = 0.7117	1.067
318.15 K, 101.31 kPa, x1 = 0.8036	1.171
318.15 K, 101.31 kPa, x1 = 0.9017	1.28
323.15 K, 101 kPa, x1 = 0.8011	1.125

C[N+](C)(C)CCC[n+]1ccccc1.N#C[N-]C#N.N#C[N-]C#N + CCO
viscosity [mPa·s], 100 kPa
Settings	293.15 K	313.15 K	323.15 K
x1 = 0.7003	–	–	75.75
x1 = 0.7998	614.5	161.5	99.22

CCCCCCCO + CCOC(C)=O
viscosity [mPa·s], 101.33 kPa
Settings	x2 = 0.1277	x2 = 0.2478	x2 = 0.3609	x2 = 0.4677	x2 = 0.5686	x2 = 0.6673	x2 = 0.7546	x2 = 0.8406
298.15 K	3.587	2.423	1.721	1.284	1	0.823	0.663	0.569
303.15 K	3.13	2.144	1.543	1.184	0.914	0.752	0.627	0.529
308.15 K	2.724	1.904	1.41	1.065	0.839	0.696	0.576	0.496

CCOC(=O)C(C)O (stereo unspecified) + CN1CCCC1=O
viscosity [mPa·s], 101 kPa
Settings	293.15 K	313.15 K
x1 = 0.0999	–	1.525
x1 = 0.3001	2.585	1.765

NS(=O)(=O)O + CN1CCCC1=O
298 K, 101.33 kPa
Settings	viscosity [mPa·s]
x1 = 0.02005	2.01
x1 = 0.03918	2.413
x1 = 0.05851	2.977
x1 = 0.07708	3.724
x1 = 0.09776	4.962

OC1CCCCC1 + CN1CCCC1=O
Settings	viscosity [mPa·s]
303.15 K, 101 kPa, x2 = 0.6223	16.55

CS(C)=O + CN(C)C=O
Settings	viscosity [mPa·s]
298 K, 101.3 kPa, x1 = 0.1668	0.924
298 K, 101.3 kPa, x1 = 0.3195	1.036
298 K, 101.3 kPa, x1 = 0.5201	1.242
298 K, 101.3 kPa, x1 = 0.6689	1.474
298 K, 101.3 kPa, x1 = 0.8514	1.785
298.15 K, 101 kPa, x1 = 0.1077	0.89
298.15 K, 101 kPa, x1 = 0.2134	0.99
298.15 K, 101 kPa, x1 = 0.4199	1.11
298.15 K, 101 kPa, x1 = 0.5205	1.24
298.15 K, 101 kPa, x1 = 0.6195	1.37
298.15 K, 101 kPa, x1 = 0.8128	1.61
298.15 K, 101 kPa, x1 = 0.9071	1.78
303.15 K, 101 kPa, x2 = 0.1	1.617
303.15 K, 101 kPa, x2 = 0.2	1.466
303.15 K, 101 kPa, x2 = 0.3	1.331
303.15 K, 101 kPa, x2 = 0.4001	1.228
303.15 K, 101 kPa, x2 = 0.5002	1.109
303.15 K, 101 kPa, x2 = 0.6001	1.025
303.15 K, 101 kPa, x2 = 0.7001	0.952
303.15 K, 101 kPa, x2 = 0.8	0.877
303.15 K, 101 kPa, x2 = 0.9	0.814
313.15 K, 101 kPa, x2 = 0.1	1.365
313.15 K, 101 kPa, x2 = 0.2	1.248
313.15 K, 101 kPa, x2 = 0.3	1.141
313.15 K, 101 kPa, x2 = 0.4001	1.057
313.15 K, 101 kPa, x2 = 0.5002	0.969
313.15 K, 101 kPa, x2 = 0.6001	0.9
313.15 K, 101 kPa, x2 = 0.7001	0.839
313.15 K, 101 kPa, x2 = 0.8	0.775
313.15 K, 101 kPa, x2 = 0.9	0.724
318 K, 101.3 kPa, x1 = 0.159	0.7095
318 K, 101.3 kPa, x1 = 0.3184	0.7948
318 K, 101.3 kPa, x1 = 0.521	0.9101
318 K, 101.3 kPa, x1 = 0.6667	1.032
318 K, 101.3 kPa, x1 = 0.8614	1.226
323.15 K, 101 kPa, x2 = 0.1	1.17
323.15 K, 101 kPa, x2 = 0.2	1.075
323.15 K, 101 kPa, x2 = 0.3	0.99
323.15 K, 101 kPa, x2 = 0.4001	0.922
323.15 K, 101 kPa, x2 = 0.5002	0.85
323.15 K, 101 kPa, x2 = 0.6001	0.792
323.15 K, 101 kPa, x2 = 0.7001	0.74
323.15 K, 101 kPa, x2 = 0.8	0.69
323.15 K, 101 kPa, x2 = 0.9	0.647

C[N+](C)(C)CCC[n+]1ccccc1.N#C[N-]C#N.N#C[N-]C#N + CO
viscosity [mPa·s], 100 kPa
Settings	293.15 K	303.15 K	313.15 K
x1 = 0.2001	–	11.45	–
x1 = 0.8995	952.8	–	198.5
